Measured values published in US20200163938A1, “PHARMACEUTICAL COMPOSITION COMPRISING IRON CHELATOR EXHIBITING ANTITUMOR ACTIVITY, ANTIBACTERIAL ACTIVITY AND/OR ANTIVIRUS ACTIVITY, AND HAVING REDUCED SIDE EFFECTS” (priority 2017, published 2020).
Where “and” joins values, the source holds several entries; their conditions need not be identical. Equal entries are not always repeated. Entries after “also recorded” stand apart in the source; their conditions may differ. Where two headings read alike, the source gives them in different places.

Key:
A549 cells = test: Apoptosis induction, TUNEL staining; type: cell-based, human; settings: 100 μg/mL, 48 hours, FIG. 11C
Description: (§1) Furthermore, the apoptosis-inducing effects of the chelating agents of test groups 6 and 10 on tumors were confirmed. First, 100 μg/mL of the chelating agent of test group 6 or 50 μg/mL of the chelating agent of test group 10 was added to HSC-2 cells in a culture solution. After 48 hours of reaction, TUNEL Assay was carried out. Specifically, apoptosis induction was evaluated by the TUNEL staining method using a MK500 in situ Apoptosis Detection Kit (Takara Bio Inc.).
(§2) Further, the apoptosis-inducing effects of the chelating agent of test group 6 or 10 on A549 cells were confirmed. 100 μg/mL of the chelating agent of test group 6 was added and 50 μg/mL of the chelating agent of test group 10 was added to the cells. After 48 hours of reaction, TUNEL staining was carried out similarly to the above.

HSC-2 cells = test: Apoptosis induction, TUNEL staining; type: cell-based, human; settings: 100 μg/mL, 48 hours, FIG. 11A
Description: as §1

S. mutans (ATCC25175) = test: Antibacterial activity, turbidity and ATP assay; type: cell-based, Streptococcus mutans; settings: aerobic culture 37° C., 18 hours; FIGS. 6A, 6B
Description: First, the antibacterial activity of a dental caries-causing bacterium, S. mutans (ATCC25175) was examined. With the use of a liquid medium prepared by adding a yeast extract and the chelating agent of each test group to TSB medium, aerobic culture was performed at 37° C. for 18 hours, and then turbidity was found from optical density (OD570 or 595 nm). Cell activity was measured using an ATP assay kit (Kikkoman Corporation). Results were as depicted in FIGS. 6A and 6B.

[1] = tested on: P. aeruginosa (ATCC9027; Pseudomonas aeruginosa); test: Minimum growth inhibition concentration (MIC); type: cell-based
Description: (§3) The dilution series of the chelating agent of each test group was prepared according to a standard method, microbes were inoculated, and then 24 hours later, the microbial growth was confirmed, thereby determining the minimum growth inhibition concentration of the chelating agent of each test group. Microbes used herein were S. aureus (ATCC6538; Staphylococcus aureus), P. aeruginosa (ATCC9027; Pseudomonas aeruginosa) and C. albicans (ATCC10231; Candida albicans). Drugs used herein were oxacillin, vancomycin and deferasirox as positive controls.

[2] = tested on: C. albicans (ATCC10231; Candida albicans); test: Minimum growth inhibition concentration (MIC); type: cell-based; settings: 24 hours
Description: as §3

[3] = tested on: S. aureus (ATCC6538; Staphylococcus aureus); test: Minimum growth inhibition concentration (MIC); type: cell-based
Description: as §3

HCT116 cells = test: Apoptosis induction, TUNEL staining; type: cell-based, human; settings: 10 μg/mL, 48 hours, FIG. 11B
Description: as §1
as §2, with “Similarly,” for “Further,”, “HCT116” for “A549”, “10” for “100”, “6.5 µg/mL” for “50 μg/mL”

P. gingivalis Pg W83 = test: Antibacterial activity, turbidity and ATP assay; type: cell-based, Porphyromonas gingivalis; settings: anaerobic culture 37° C., 18 hours, OD595 nm; FIG. 8
Description: A bacterial strain of one of periodontopathic bacteria, gram-negative bacillus, P. gingivalis, used herein was Pg W83. With the use of a liquid medium prepared by adding the chelating agent of each test group to a modified GAM bouillon medium, anaerobic culture (Anaeropack.anaerobic) was performed at 37° C. for 18 hours. Turbidity was found from optical density (OD595 nm). Results were as depicted in FIG. 8.

[4] = tested on: A. actinomycetemcomitans AaY4 (ATCC); test: Antibacterial activity, turbidity and ATP assay; type: cell-based, Aggregatibacter actinomycetemcomitans; settings: anaerobic culture 37° C., 18 hours; FIGS. 7A, 7B
Description: A bacterial strain of one of periodontopathic bacteria, A. actinomycetemcomitans, used herein was AaY4 (ATCC). With the use of a liquid medium prepared by adding a yeast extract, sodium bicarbonate and the chelating agent of each test group to TSB medium, anaerobic culture (Anaeropack-anaerobic) was performed at 37° C. for 18 hours. Turbidity was measured using absorbance (OD570 or 595 nm), and cell activity was measured using an ATP assay kit. Results were as depicted in FIGS. 7A and 7B.

[5] = type: in vivo; parameters: NEFA: unit not given here; settings: for Body weight: rats
Description: To a negative control group (saline administration; n=6), the same amount of saline was administered. On day 14 after administration, determining life or death, measurement of body weight, physical items (respiration, body temperature, behavior, etc.) were observed. Moreover, blood samples were taken from each group, and the right kidneys and the livers were removed. Results were as depicted in FIG. 5A to 5C and Tables 4 to 9.

[6] = tested on: subcutaneously-transplanted HCT116 cells; type: in vivo, nude mice (BALB/c nu/nu); settings: mouse, in vivo, 200 mg/kg/day
Description: Next, the antitumor effects of the chelating agents of test groups 6 and 10 on HCT116-cell subcutaneous transplantation model mice, into which HCT116 cells had been subcutaneously transplanted, were confirmed. Mice prepared herein were nude mice (BALB/c nu/nu, 6 weeks old: Clea Japan Inc.). HCT116 cells were adjusted at 3×10^6/mouse, and then mixed with Matrigel (BD Biosciences) at 1:1. The thus obtained mixture was administered to mice, thereby preparing subcutaneous tumors. The dosage was 200 mg/kg/day (5 times/week administration). […] Tissue sections of HCT116 cells subcutaneously transplanted into the test group 10 administration group were prepared, and then hematoxylin-eosin (HE) staining, and TUNEL staining were performed by the above-mentioned method.

[7] = rat blood, oral 200 mg/kg, day 14
[8] = rat blood, oral 1000 mg/kg, day 14, 1000 mg/kg

Cl.OCC1OC(O)C(NCc2ccc(O)c(O)c2O)C(O)C1O (centres unmarked) [Test group 6]
apoptosis-inducing effects (TUNEL staining) (A549 cells): green-stained cells (FITC positive cells) indicating apoptosis were confirmed | apoptosis-inducing effects (TUNEL staining) (HSC-2 cells): green-stained cells indicating apoptosis were confirmed | antimicrobial effects on S. mutans (turbidity, ATP activity) (S. mutans (ATCC25175)): strong antimicrobial effects; also recorded: very strong antibacterial activity | MIC P. aeruginosa ([1]; 24 hours): 400 µg/mL | antimicrobial effects on P. aeruginosa (in words) ([1]; from Table 10): exhibited antimicrobial effects | MIC C. albicans [2]: >800 µg/mL | MIC S. aureus ([3]; 24 hours): 400 µg/mL | antimicrobial effects on S. aureus (in words) ([3]; from Table 10): strong antimicrobial effects | apoptosis-inducing effects (TUNEL staining) (HCT116 cells): green-stained cells indicating apoptosis were confirmed | antimicrobial effects on P. gingivalis (turbidity) (P. gingivalis Pg W83): exhibited antimicrobial effects | antimicrobial effects on A. actinomycetemcomitans (turbidity, ATP activity) [4]: strong antimicrobial effects | ALP [5, 7]: 745 IU/L | ALT [5, 7]: 34 IU/L | AST [5, 7]: 58 IU/L | BUN [5, 7]: 27.2 mg/dL | CRE [5, 7]: 0.37 mg/dL | Ca [5, 7]: 10.2 mg/dL | GLU [5, 7]: 212 mg/dL | K [5, 7]: 3.6 mEQ/L | LD [5, 7]: 45 IU/L | NEFA [5, 7]: 58 | Na [5, 7]: 141 mEQ/L | T-Bil [5, 7]: 0.03 mg/dL | TP [5, 7]: 5.1 g/dL | ALP [5, 8]: 437 IU/L and 471 IU/L | BUN [5, 8]: 22.2 mg/dL and 28.9 mg/dL | CRE [5, 8]: 0.31 mg/dL and 0.48 mg/dL | Ca [5, 8]: 10.2 mg/dL and 11.0 mg/dL | GLU [5, 8]: 159 mg/dL and 199 mg/dL | K [5, 8]: 4.5 mEQ/L and 4.1 mEQ/L | Na [5, 8]: 144 mEQ/L and 143 mEQ/L | TP [5, 8]: 5.4 g/dL and 5.1 g/dL | Body weight ([5]; oral 200 mg/kg): 180.37 g | Body weight ([5]; oral 1000 mg/kg, 1000 mg/kg): 174.48 g and 178.68 g | body weight change [6]: no body weight change due to administration was observed
